“And” between values parts separate entries of the source, which are not always exact repeats. Equal entries are not always repeated.
Assays:
[1] = tested on: MiaPaca2 KRAS G12C resistant clone 28; experiment: 5-day Cell Titer Glo viability and Bliss score; type: cell-based; details: 5-day CTG
Experimental: For G12C resistant clone generation, MiaPaca2 parent cells were cultured with increasing concentrations of AMG510 (up to 1μM) over time. The viable cells were re-fed fresh media containing AMG510 weekly. Once the AMG510 resistant cells were growing at normal rates in the presence of 1μM AMG510, they were cloned by limiting dilution. Eight clones were selected for continued passage and further experiments.

MiaPaca2 cells = experiment: 5-day Cell Titer Glo viability and Bliss score
Experimental: For synergy experiments, cells were seeded in RPMI medium with 10% HI FBS at a density of 500 cells/well in Greiner, white, clear bottom, 384-well tissue culture treated plates containing 10x10 combination matrices of compound. Plates were incubated at 37° C., 5% CO2 for 5 days. On day 5, Cell Titer Glo reagent was added to the plates and ATP luminescence was detected using a Pherastar FSX reader. The synergy score for the combination effect was calculated using a Bliss score model where the Bliss score=Yab−(Ya+Yb−(YaYb))×100, where Ya and Yb are the monotherapies. Bliss scores >20 are strongly synergistic and a higher Bliss scores indicates a higher level of synergism.

[2] = tested on: LU99 lung cancer xenograft; experiment: LU99 xenograft model, tumor growth inhibition; type: in vivo; details: NCr nude mice; AMG510 20 mg/kg, pemigatinib 0.3 mg/kg, alone or combined; oral QD, 30 days; last day of treatment
Experimental: The in vivo effect of combining the FGFR1 inhibitor pemigatinib plus the KRAS G12C inhibitor AMG510 was assessed in the LU99 lung cancer model (JCRB0080, JCRB) xenograft model (FIG. 3) in 6 to 8 week old female NCr nude mice (Taconic). Pemigatinib and AMG510 were suspended in 5% N,N-dimethyl acetamide (DMAC)+50 mM Citrate buffer (pH 3.0) in 0.5% methyl cellulose for oral administration. Briefly, mice were inoculated in the left flank with 1×10^7 LU99 cells re-suspended in a PBS and matrigel (Corning Life Sciences, Tewksbury, Mass) solution at 1:1. On Day 7, mice were randomized into 4 groups of 10 mice at approximate mean volume (˜212 mm^3). […] Tumor growth inhibition was calculated using the formula (1−(VT/VC))×100, where VT is the tumor volume of the treatment group on the last day of treatment, and Vc is the tumor volume of the control group on the last day of treatment. […] Statistics were determined using One-Way ANOVA.
Briefly, mice were inoculated in the left flank with 1×10^7LU99 cells re-suspended in a PBS and matrigel (Corning Life Sciences, Tewksbury, Mass) solution at 1:1. […] TGI was calculated using the formula (1−(VT/VC))×100, where VT is the tumor volume of the treatment group on the last day of treatment, and VC is the tumor volume of the control group on the last day of treatment. […]

pFRS2a = experiment: Western blot of pFRS2a in LU99 cell lysate (90 hours treatment); type: cell-based; details: LU99 cells
Source text: FGFR1 and downstream activation marker pFRS2a protein levels were examined in indicated cell lines, as well as markers for epithelial-like cells (E-cadherin) and mesenchymal-like cells (Vimentin).

CCN1C(=O)N(c2c(F)c(OC)cc(OC)c2F)Cc2cnc3[nH]c(CN4CCOCC4)cc3c21 [Pemigatinib, 3-(2,6-difluoro-3,5-dimethoxyphenyl)-1-ethyl-8-(morpholin-4-ylmethyl)-1,3,4,7-tetrahydro-2H-pyrrolo[3′,2′:5,6]pyrido[4,3-d]pyrimidin-2-one]
% viability, Together ([1]; G12C i 111 nM + Pemi 1 μM): 32.4% | BLISS Score ([1]; G12C i 111 nM + Pemi 1 μM): 21.8 | % viability, Pemi 1 μM ([1]; Pemi alone): 78% | BLISS Score (MiaPaca2 cells; MIA PaCa2, Pemi 12 nM + KRAS G12C i 0.15 nM, 5 day CTG): −16.39 | BLISS Score (MiaPaca2 cells; MIA PaCa2, Pemi 12 nM + KRAS G12C i 0.46 nM, 5 day CTG): −9.92 | BLISS Score (MiaPaca2 cells; MIA PaCa2, Pemi 12 nM + KRAS G12C i 1.37 nM, 5 day CTG): −4.50 | BLISS Score (MiaPaca2 cells; MIA PaCa2, Pemi 12 nM + KRAS G12C i 4.12 nM, 5 day CTG): −1.78 | BLISS Score (MiaPaca2 cells; MIA PaCa2, Pemi 12 nM + KRAS G12C i 12.35 nM, 5 day CTG): −1.91 | BLISS Score (MiaPaca2 cells; MIA PaCa2, Pemi 12 nM + KRAS G12C i 37.04 nM, 5 day CTG): 1.33 | BLISS Score (MiaPaca2 cells; MIA PaCa2, Pemi 12 nM + KRAS G12C i 111.11 nM, 5 day CTG): 0.06 | BLISS Score (MiaPaca2 cells; MIA PaCa2, Pemi 12 nM + KRAS G12C i 333.33 nM, 5 day CTG): 0.73 | BLISS Score (MiaPaca2 cells; MIA PaCa2, Pemi 12 nM + KRAS G12C i 1000.00 nM, 5 day CTG): 0.29 | BLISS Score (MiaPaca2 cells; MIA PaCa2, Pemi 37 nM + KRAS G12C i 0.15 nM, 5 day CTG): −13.53 | BLISS Score (MiaPaca2 cells; MIA PaCa2, Pemi 37 nM + KRAS G12C i 0.46 nM, 5 day CTG): −5.08 | BLISS Score (MiaPaca2 cells; MIA PaCa2, Pemi 37 nM + KRAS G12C i 1.37 nM, 5 day CTG): 6.72 | BLISS Score (MiaPaca2 cells; MIA PaCa2, Pemi 37 nM + KRAS G12C i 4.12 nM, 5 day CTG): 4.25 | BLISS Score (MiaPaca2 cells; MIA PaCa2, Pemi 37 nM + KRAS G12C i 12.35 nM, 5 day CTG): 3.06 | BLISS Score (MiaPaca2 cells; MIA PaCa2, Pemi 37 nM + KRAS G12C i 37.04 nM, 5 day CTG): 5.01 | BLISS Score (MiaPaca2 cells; MIA PaCa2, Pemi 37 nM + KRAS G12C i 111.11 nM, 5 day CTG): 3.10 | BLISS Score (MiaPaca2 cells; MIA PaCa2, Pemi 37 nM + KRAS G12C i 333.33 nM, 5 day CTG): 2.88 | BLISS Score (MiaPaca2 cells; MIA PaCa2, Pemi 37 nM + KRAS G12C i 1000.00 nM, 5 day CTG): 2.69 | BLISS Score (MiaPaca2 cells; MIA PaCa2, Pemi 111 nM + KRAS G12C i 0.15 nM, 5 day CTG): −10.62 | BLISS Score (MiaPaca2 cells; MIA PaCa2, Pemi 111 nM + KRAS G12C i 0.46 nM, 5 day CTG): −7.15 | BLISS Score (MiaPaca2 cells; MIA PaCa2, Pemi 111 nM + KRAS G12C i 1.37 nM, 5 day CTG): 9.38 | BLISS Score (MiaPaca2 cells; MIA PaCa2, Pemi 111 nM + KRAS G12C i 4.12 nM, 5 day CTG): 4.70 | BLISS Score (MiaPaca2 cells; MIA PaCa2, Pemi 111 nM + KRAS G12C i 12.35 nM, 5 day CTG): 4.83 | BLISS Score (MiaPaca2 cells; MIA PaCa2, Pemi 111 nM + KRAS G12C i 37.04 nM, 5 day CTG): 6.56 | BLISS Score (MiaPaca2 cells; MIA PaCa2, Pemi 111 nM + KRAS G12C i 111.11 nM, 5 day CTG): 4.31 | BLISS Score (MiaPaca2 cells; MIA PaCa2, Pemi 111 nM + KRAS G12C i 333.33 nM, 5 day CTG): 3.66 | BLISS Score (MiaPaca2 cells; MIA PaCa2, Pemi 111 nM + KRAS G12C i 1000.00 nM, 5 day CTG): 4.56 | BLISS Score (MiaPaca2 cells; MIA PaCa2, Pemi 333 nM + KRAS G12C i 0.15 nM, 5 day CTG): −12.96 | BLISS Score (MiaPaca2 cells; MIA PaCa2, Pemi 333 nM + KRAS G12C i 0.46 nM, 5 day CTG): −5.77 | BLISS Score (MiaPaca2 cells; MIA PaCa2, Pemi 333 nM + KRAS G12C i 1.37 nM, 5 day CTG): 11.10 | BLISS Score (MiaPaca2 cells; MIA PaCa2, Pemi 333 nM + KRAS G12C i 4.12 nM, 5 day CTG): 7.47 | BLISS Score (MiaPaca2 cells; MIA PaCa2, Pemi 333 nM + KRAS G12C i 12.35 nM, 5 day CTG): 3.76 | BLISS Score (MiaPaca2 cells; MIA PaCa2, Pemi 333 nM + KRAS G12C i 37.04 nM, 5 day CTG): 6.27 | BLISS Score (MiaPaca2 cells; MIA PaCa2, Pemi 333 nM + KRAS G12C i 111.11 nM, 5 day CTG): 4.88 | BLISS Score (MiaPaca2 cells; MIA PaCa2, Pemi 333 nM + KRAS G12C i 333.33 nM, 5 day CTG): 3.97 | BLISS Score (MiaPaca2 cells; MIA PaCa2, Pemi 333 nM + KRAS G12C i 1000.00 nM, 5 day CTG): 2.38 | BLISS Score (MiaPaca2 cells; MIA PaCa2, Pemi 1000 nM + KRAS G12C i 0.15 nM, 5 day CTG): −10.95 | BLISS Score (MiaPaca2 cells; MIA PaCa2, Pemi 1000 nM + KRAS G12C i 0.46 nM, 5 day CTG): −5.74 | BLISS Score (MiaPaca2 cells; MIA PaCa2, Pemi 1000 nM + KRAS G12C i 1.37 nM, 5 day CTG): 3.46 | BLISS Score (MiaPaca2 cells; MIA PaCa2, Pemi 1000 nM + KRAS G12C i 4.12 nM, 5 day CTG): 6.59 | BLISS Score (MiaPaca2 cells; MIA PaCa2, Pemi 1000 nM + KRAS G12C i 12.35 nM, 5 day CTG): 2.84 | BLISS Score (MiaPaca2 cells; MIA PaCa2, Pemi 1000 nM + KRAS G12C i 37.04 nM, 5 day CTG): 4.32 | BLISS Score (MiaPaca2 cells; MIA PaCa2, Pemi 1000 nM + KRAS G12C i 111.11 nM, 5 day CTG): 4.62 | BLISS Score (MiaPaca2 cells; MIA PaCa2, Pemi 1000 nM + KRAS G12C i 333.33 nM, 5 day CTG): 3.71 | BLISS Score (MiaPaca2 cells; MIA PaCa2, Pemi 1000 nM + KRAS G12C i 1000.00 nM, 5 day CTG): 4.32 | BLISS Score (MiaPaca2 cells; MIAPACA2, Average, G12C i 111 nM + Pemi 1 μM, 5-day CTG): 6.3 | BLISS Score (MiaPaca2 cells; MIAPACA2, G12C i 111 nM + Pemi 1 μM, 5-day CTG, single experiments): 8.8 and 5.6 and 4.6 | TGI (tumor growth inhibition) [2]: 63% | pFRS2a level, FGFR inhibitor in combination with KRAS inhibitor MRTX849 (pFRS2a; 50 nM MRTX849, pemigatinib 0.5 μM): inhibited the pFRS2a level | pFRS2a level, FGFR inhibitor in combination with KRAS inhibitors (pFRS2a; with 50 nM AMG510 or Compound 2): inhibited the pFRS2a level

— patent US20230226040A1, “COMBINATION THERAPY COMPRISING AN FGFR INHIBITOR AND A KRAS INHIBITOR” (Incyte Corporation, priority 2021, published 2023)
